Source: patent publication US20260226493A1, “HERBICIDE RESISTANT PLANTS” (SYNGENTA CROP PROTECTION AG, priority 2023, published 2026)

Columns and labels:
Test in all cases: BIO3-BIO1 mutant enzyme activity in the presence of herbicide, percentage inhibition (fluorometric DAPA assay)
Type in all cases: biochemical
Details in all cases: read-out: percentage inhibition
[1] = biological target: T1, Arabidopsis thaliana BIO3-BIO1 (BioDA) mutants (Arabidopsis thaliana, UniProt B0F481, A609N)
T1 construct: with the predicted N-terminal mitochondrial transit peptide removed; 6xHis-tag (N); thrombin cleavage site (N); made in house; host or cells: E. coli BL21 (DE3) bioA
T1 sequence (B0F481 23-833 A609N): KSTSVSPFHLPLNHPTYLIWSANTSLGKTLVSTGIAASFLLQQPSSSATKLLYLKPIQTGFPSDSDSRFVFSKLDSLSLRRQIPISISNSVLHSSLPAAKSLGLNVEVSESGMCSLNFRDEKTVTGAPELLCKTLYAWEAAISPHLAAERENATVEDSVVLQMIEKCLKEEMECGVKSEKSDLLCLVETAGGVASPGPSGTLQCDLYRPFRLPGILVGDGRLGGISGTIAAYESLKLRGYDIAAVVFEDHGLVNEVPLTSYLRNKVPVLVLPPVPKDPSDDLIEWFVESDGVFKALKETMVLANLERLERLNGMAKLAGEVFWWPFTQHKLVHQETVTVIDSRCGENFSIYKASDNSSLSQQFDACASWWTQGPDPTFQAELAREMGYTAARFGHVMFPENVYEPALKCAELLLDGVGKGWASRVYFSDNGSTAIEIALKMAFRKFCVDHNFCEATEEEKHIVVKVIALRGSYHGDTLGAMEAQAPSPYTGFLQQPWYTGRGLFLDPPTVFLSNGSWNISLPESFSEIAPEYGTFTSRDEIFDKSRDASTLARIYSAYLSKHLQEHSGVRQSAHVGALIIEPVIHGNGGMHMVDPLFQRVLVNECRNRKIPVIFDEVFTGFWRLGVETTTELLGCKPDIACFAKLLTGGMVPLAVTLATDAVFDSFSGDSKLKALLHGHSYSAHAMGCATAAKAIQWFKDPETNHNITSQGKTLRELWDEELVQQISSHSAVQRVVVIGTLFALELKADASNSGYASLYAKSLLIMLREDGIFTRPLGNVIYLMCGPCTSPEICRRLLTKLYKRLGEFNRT
Source text: (§1) A pet-24 plasmid containing a DNA sequence encoding each identified variant mutant of BIO3-BIO1 derived from Arabidopsis thaliana from example 5 above, as shown in Table 13 below and as shown in full in SEQ ID NOs: 15 to 155, codon-optimised for expression in E. coli, with an N-terminal 6×His-tag and thrombin cleavage site and under control of a T7 promoter, and was synthesised by Twist Bioscience, in a similar manner to SEQ ID NO:311. These plasmids were then expressed in E. coli BL21 (DE3) bioA with 50 μg/mL kanamycin and 25 μg/mL chloramphenicol selection. Overnight cultures grown at 37° C. were used to inoculate 8×500 mL AIM in shake flasks at a ratio of 1:100. Cultures were grown at 37° C., 200 rpm for 3.5 hours and then overnight at 20° C. Cells were harvested by centrifugation for 30 minutes at 10 000 g. Cells were stored at −80° C. until extraction. 30 g of cell pellet from was thawed in 120 mL of IMAC buffer A (20 mM HEPES pH7.5, 25 mM imidazole, 500 mM sodium chloride, 0.15 mM pyridoxal phosphate, 0.5 mM TCEP, 1× complete Protease Inhibitor Tablet (Roche)). The resuspension was passed through a cell disrupter at 18 000 PSI and centrifuged at 50 000 g for 25 minutes at 4° C. The His-tagged BIO3-BIO1 protein was purified from the extract supernatant on an AKTA avant chromatography system (Cytiva) using a HisTrap FF column and eluted in IMAC buffer B ((20 mM HEPES pH7.5, 500 mM imidazole, 500 mM sodium chloride, 0.15 mM pyridoxal phosphate, 0.5 mM TCEP) followed by SEC using a HiLoad 26/60 Superdex200 column in SEC buffer (25 mM HEPES pH7.5, 150 mM sodium chloride, 0.15 mM pyridoxal phosphate, 0.5 mM TCEP). Protein concentration was measured and calculated using the absorbance at 280 nm. Extracts were diluted 1 in 4 and 10 uL was analysed by SDS PAGE.
(§2) To measure BIO3-BIO1 mutant enzyme activity in the presence of herbicide, herbicides were incubated with 20 μL of enzyme mix (100 mM EPPS pH 8.6, 0.1 mM pyridoxal phosphate, 0.1 mg/mL BSA, 50 nM BIO3-BIO1 enzyme) for 10 minutes at 20° C. in a well of a 96-well half-area black plate, followed by the addition of 20 μL of substrate mix (final concentration of 100 mM EPPS pH 8.6, 0.1 mM pyridoxal phosphate, 0.1 mg/mL BSA, 100 μM spermidine, 20 μM KAPA, 100 mM NaCO3) and further incubation for 75 minutes at 20° C. The reaction was terminated by the addition of 50 μL of derivatisation mix (final concentration of 250 mM borate NaOH pH 9.4, 3.6 mM o-phthalaldehyde, 7 mM β-mercaptoethanol, 17% (v/v) ethanol, 3.6% (v/v) methanol). The fluorescent product produced by the reaction of DAPA with o-phthalaldehyde and 7 mM β-mercaptoethanol was measured at 470 nm after excitation at 410 nm. The percentage inhibition was calculated as the activity in the presence of one of three concentrations of each herbicide compound A to M (note that the compounds labelled as A to M are identified hereinabove in the relevant section of the description) as a percentage of the activity in DMSO (Table 12 and 13). The percentage activity versus WT was also calculated and is shown in Table 13 and 14 (NT indicates mutation not tested in table 13, note that these mutations are tested at different compound concentrations for compounds L, M and C, and the results are shown in table 14).

[2] = biological target: T2, Arabidopsis thaliana BIO3-BIO1 (BioDA) mutants (Arabidopsis thaliana, UniProt B0F481, F348C)
T2 construct: with the predicted N-terminal mitochondrial transit peptide removed; 6xHis-tag (N); thrombin cleavage site (N); made in house; host or cells: E. coli BL21 (DE3) bioA
T2 sequence (B0F481 23-833 F348C): as the sequence (B0F481 23-833 A609N) above, with F326C, N587A counted along it
Source text: as §1, §2

[3] = biological target: T3, Arabidopsis thaliana BIO3-BIO1 (BioDA) mutants (Arabidopsis thaliana, UniProt B0F481, F348V)
T3 construct: with the predicted N-terminal mitochondrial transit peptide removed; 6xHis-tag (N); thrombin cleavage site (N); made in house; host or cells: E. coli BL21 (DE3) bioA
T3 sequence (B0F481 23-833 F348V): as the sequence (B0F481 23-833 A609N) above, with F326V, N587A counted along it
Source text: as §1, §2

[4] = biological target: T4, Arabidopsis thaliana BIO3-BIO1 (BioDA) mutants (Arabidopsis thaliana, UniProt B0F481, G513A)
T4 construct: with the predicted N-terminal mitochondrial transit peptide removed; 6xHis-tag (N); thrombin cleavage site (N); made in house; host or cells: E. coli BL21 (DE3) bioA
T4 sequence (B0F481 23-833 G513A): as the sequence (B0F481 23-833 A609N) above, with G491A, N587A counted along it
Source text: as §1, §2

[5] = biological target: T5, Arabidopsis thaliana BIO3-BIO1 (BioDA) mutants (Arabidopsis thaliana, UniProt B0F481, M419I)
T5 construct: with the predicted N-terminal mitochondrial transit peptide removed; 6xHis-tag (N); thrombin cleavage site (N); made in house; host or cells: E. coli BL21 (DE3) bioA
T5 sequence (B0F481 23-833 M419I): as the sequence (B0F481 23-833 A609N) above, with M397I, N587A counted along it
Source text: as §1, §2

[6] = biological target: T6, Arabidopsis thaliana BIO3-BIO1 (BioDA) mutants (Arabidopsis thaliana, UniProt B0F481, Q517I)
T6 construct: with the predicted N-terminal mitochondrial transit peptide removed; 6xHis-tag (N); thrombin cleavage site (N); made in house; host or cells: E. coli BL21 (DE3) bioA
T6 sequence (B0F481 23-833 Q517I): as the sequence (B0F481 23-833 A609N) above, with Q495I, N587A counted along it
Source text: as §1, §2

[7] = biological target: T7, Arabidopsis thaliana BIO3-BIO1 (BioDA) mutants (Arabidopsis thaliana, UniProt B0F481, R756K)
T7 construct: with the predicted N-terminal mitochondrial transit peptide removed; 6xHis-tag (N); thrombin cleavage site (N); made in house; host or cells: E. coli BL21 (DE3) bioA
T7 sequence (B0F481 23-833 R756K): as the sequence (B0F481 23-833 A609N) above, with N587A, R734K counted along it
Source text: as §1, §2

[8] = biological target: T8, Arabidopsis thaliana BIO3-BIO1 (BioDA) mutants (Arabidopsis thaliana, UniProt B0F481, S509F)
T8 construct: with the predicted N-terminal mitochondrial transit peptide removed; 6xHis-tag (N); thrombin cleavage site (N); made in house; host or cells: E. coli BL21 (DE3) bioA
T8 sequence (B0F481 23-833 S509F): as the sequence (B0F481 23-833 A609N) above, with S487F, N587A counted along it
Source text: as §1, §2

[9] = biological target: T9, Arabidopsis thaliana BIO3-BIO1 (BioDA) mutants (Arabidopsis thaliana, UniProt B0F481, S509K)
T9 construct: with the predicted N-terminal mitochondrial transit peptide removed; 6xHis-tag (N); thrombin cleavage site (N); made in house; host or cells: E. coli BL21 (DE3) bioA
T9 sequence (B0F481 23-833 S509K): as the sequence (B0F481 23-833 A609N) above, with S487K, N587A counted along it
Source text: as §1, §2

[10] = biological target: T10, Arabidopsis thaliana BIO3-BIO1 (BioDA) mutants (Arabidopsis thaliana, UniProt B0F481, S509Y)
T10 construct: with the predicted N-terminal mitochondrial transit peptide removed; 6xHis-tag (N); thrombin cleavage site (N); made in house; host or cells: E. coli BL21 (DE3) bioA
T10 sequence (B0F481 23-833 S509Y): as the sequence (B0F481 23-833 A609N) above, with S487Y, N587A counted along it
Source text: as §1, §2

[11] = biological target: T11, Arabidopsis thaliana BIO3-BIO1 (BioDA) mutants (Arabidopsis thaliana, UniProt B0F481, T512C)
T11 construct: with the predicted N-terminal mitochondrial transit peptide removed; 6xHis-tag (N); thrombin cleavage site (N); made in house; host or cells: E. coli BL21 (DE3) bioA
T11 sequence (B0F481 23-833 T512C): as the sequence (B0F481 23-833 A609N) above, with T490C, N587A counted along it
Source text: as §1, §2

[12] = biological target: T12, Arabidopsis thaliana BIO3-BIO1 (BioDA) mutants (Arabidopsis thaliana, UniProt B0F481, W392D)
T12 construct: with the predicted N-terminal mitochondrial transit peptide removed; 6xHis-tag (N); thrombin cleavage site (N); made in house; host or cells: E. coli BL21 (DE3) bioA
T12 sequence (B0F481 23-833 W392D): as the sequence (B0F481 23-833 A609N) above, with W370D, N587A counted along it
Source text: as §1, §2

Compound	inhibition at 1 µM [1] [%]	inhibition at 1 µM [2] [%]	inhibition at 1 µM [3] [%]	inhibition at 1 µM [4] [%]	inhibition at 1 µM [5] [%]	inhibition at 1 µM [6] [%]	inhibition at 1 µM [7] [%]	inhibition at 1 µM [8] [%]	inhibition at 1 µM [9] [%]	inhibition at 1 µM [10] [%]	inhibition at 1 µM [11] [%]	inhibition at 1 µM [12] [%]	inhibition at 0.2 µM [1] [%]	inhibition at 5 µM [1] [%]	inhibition at 0.2 µM [2] [%]	inhibition at 5 µM [2] [%]	inhibition at 0.2 µM [3] [%]	inhibition at 5 µM [3] [%]	inhibition at 0.2 µM [4] [%]	inhibition at 5 µM [4] [%]	further results
CCOC(=O)c1nn(-c2ccc3c(c2)OC(F)(F)C(F)(F)O3)c2cccc(C(C)=O)c2c1=O [Compound A, ethyl 5-acetyl-4-oxo-1-(2,2,3,3-tetrafluoro-1,4-benzodioxin-6-yl)cinnoline-3-carboxylate]	78	0	4	64	7	28	33	6	0	3	50	55									
CCn1c(C)c(-c2ccc(F)cc2F)c(=O)c(C(=O)O)c1-c1ccc(Cl)c(Cl)c1 [Compound C, 2-(3,4-dichlorophenyl)-5-(2,4-difluorophenyl)-1-ethyl-6-methyl-4-oxo-pyridine-3-carboxylic acid]	36	0	0	63	7	58	42	82	88	76	83	59	45	53	0	0	0	1	10	88	inhibition at 0.2 µM [5]: 1%; inhibition at 5 µM [5]: 53%; inhibition at 0.2 µM [6]: 25%; inhibition at 5 µM [6]: 82%; inhibition at 0.2 µM [7]: 6%; inhibition at 5 µM [7]: 80%; inhibition at 0.2 µM [8]: 24%; inhibition at 5 µM [8]: 98%; inhibition at 0.2 µM [9]: 54%; inhibition at 5 µM [9]: 95%; inhibition at 0.2 µM [10]: 37%; inhibition at 5 µM [10]: 95%; inhibition at 0.2 µM [11]: 22%; inhibition at 5 µM [11]: 97%; inhibition at 0.2 µM [12]: 46%; inhibition at 5 µM [12]: 91%
CCn1c(Cn2ccc(C(F)(F)F)n2)cc(=O)c(C(=O)O)c1-c1ccc(Cl)c(Cl)c1 [Compound L, 2-(3,4-dichlorophenyl)-1-ethyl-4-oxo-6-[[3-(trifluoromethyl)pyrazol-1-yl]methyl]pyridine-3-carboxylic acid]																					inhibition at 0.01 µM [1]: 83%; inhibition at 0.075 µM [1]: 83%; inhibition at 0.5 µM [1]: 85%; inhibition at 0.01 µM [2]: 0%; inhibition at 0.075 µM [2]: 0%; inhibition at 0.5 µM [2]: 29%; inhibition at 0.01 µM [3]: 10%; inhibition at 0.075 µM [3]: 15%; inhibition at 0.5 µM [3]: 11%; inhibition at 0.01 µM [4]: 0%; inhibition at 0.075 µM [4]: 57%; inhibition at 0.5 µM [4]: 90%; inhibition at 0.01 µM [5]: 6%; inhibition at 0.075 µM [5]: 1%; inhibition at 0.5 µM [5]: 30%
CCn1c(-c2ccc(Cl)c(Cl)c2)c(C(=O)O)c(=O)c2cc(F)ccc21 [Compound M, 2-(3,4-dichlorophenyl)-1-ethyl-6-fluoro-4-oxo-quinoline-3-carboxylic acid]	49	3	0	58	21	44	36	58	77	58	79	37	44	62	14	0	0	0	25	90	inhibition at 0.2 µM [5]: 2%; inhibition at 5 µM [5]: 20%; inhibition at 0.2 µM [6]: 19%; inhibition at 5 µM [6]: 72%; inhibition at 0.2 µM [7]: 10%; inhibition at 5 µM [7]: 71%; inhibition at 0.2 µM [8]: 19%; inhibition at 5 µM [8]: 89%; inhibition at 0.2 µM [9]: 41%; inhibition at 5 µM [9]: 90%; inhibition at 0.2 µM [10]: 28%; inhibition at 5 µM [10]: 85%; inhibition at 0.2 µM [11]: 27%; inhibition at 5 µM [11]: 95%; inhibition at 0.2 µM [12]: 14%; inhibition at 5 µM [12]: 81%
